Experimental data reported in patent US20220125930A1, “SYSTEM AND METHOD FOR FABRICATION OF LARGE, POROUS DRUG-SILK MATERIALS USING CRYOGRANULATION” (Trustees of Tufts College, priority 2019, published 2022).

Test system: bioluminescent S. aureus Xen29
Test: Kirby-Bauer disc diffusion test of antibiotic-loaded RSFPs
Type: cell-based
Conditions: zones of inhibition on XEN29 cultures after 12 hours, vs blank RSFPs
Description: Antimicrobial activity of tobramycin sulfate (TS), gentamicin sulfate (GS) and kanamycin sulfate (KS) encapsulated in RSFPs sized 100-500 mcm was assessed by Kirby-Bauer disc diffusion tests, performed according to methods outlined in the NCCLS Approved Standard M2-A7. A stock suspension of bioluminescent S. aureus Xen29 was prepared in sterile physiological solution and turbidity (expressed as optical density; OD) was adjusted against the McFahrland standard to match the 0.5 level. A sterilized cotton swab was immersed in the bacterial suspension, and a lawn of bacteria was applied on the Luria Bertani (LB) plates. A 10-mm biopsy punch was used to cut two circular fragments from each of the freshly infected plates, and both fragments were coated with antibiotic-loaded RSFPs by quick blotting against the pool of particles. The freshly mounted samples were inserted […] II system (Caliper life Science, America). The exposure time (1 s), excitation filter (430 nm), and emission filter with emission wavelength from 575 to 650 nm (DsRed) were set prior to detection.

| Substance | post-processing antimicrobial activity (antibiotic function) of cryoencapsulated antibiotics |
| --- | --- |
| gentamicin sulfate [GS] | preserved |
| tobramycin sulfate [TS] | preserved |
